In the supplement of paper PMC10331698:
± gives the standard deviation of the averaged measurements.

Legend:
Assay in all cases: level (log10 ratio to DMSO vehicle control); higher = higher biomarker level / cell amount than vehicle control
[1] = compound: O=C(O)C(F)(OC(F)(F)C(F)(OC(F)(F)C(F)(OC(F)(F)C(F)(F)C(F)(F)F)C(F)(F)F)C(F)(F)F)C(F)(F)F [Perfluoro-(2,5,8-trimethyl-3,6,9-trioxadodecanoic)acid] (in DMSO)
Procedure: (§1)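 BioMAP Diversity Plus panel of 12 human primary cell co-culture systems (3C, 4H, LPS, SAg, BT, BF4T, BE3C, CASM3C, HDF3CGF, KF3CT, MyoF, Mphg). Compounds were added 1 h before stimulation and left for 24 h (MyoF 48 h; BT 72 h for soluble read-outs or 6 d for IgG). Biomarkers were read by ELISA, cytotoxicity by SRB, PBMC viability and proliferation by Alamar Blue. Each well value was divided by the mean of 8 DMSO control wells on the same plate and log10 transformed; duplicate blinded samples were tested at 4 concentrations.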

[2] = compound: O=C(O)C(F)(F)OC(F)(F)C(F)(F)OC(F)(F)C(F)(F)OC(F)(F)C(F)(F)C(F)(F)C(F)(F)F [Perfluoro-3,6,9-trioxatridecanoic acid] (in DMSO); details: 6700 nM
Procedure: as §1

[3] = compound: C[C@@H]1C[C@H]2[C@@H]3CCC4=CC(=O)C=C[C@]4(C)[C@@]3(F)[C@@H](O)C[C@]2(C)[C@@]1(O)C(=O)COP(=O)(O)O [Dexamethasone sodium phosphate] (in DMSO)
Procedure: as §1

[4] = compound: OCCC(F)(F)C(F)(F)C(F)(F)C(F)(F)F [4:2 Fluorotelomer alcohol] (in DMSO)
Procedure: as §1

[5] = compound: CN(C(=O)C(F)(F)C(F)(F)C(F)(F)F)[Si](C)(C)C [N-Methyl-N-trimethylsilylheptafluorobutyramide] (in DMSO)
Procedure: as §1

[6] = compound: CO[Si](C)(CCC(F)(F)C(F)(F)C(F)(F)C(F)(F)C(F)(F)C(F)(F)F)OC [Dimethoxymethyl((perfluorohexyl)ethyl)silane] (in DMSO)
Procedure: as §1

[7] = compound: O=C(O)C=C(C(F)(F)F)C(F)(F)F [3,3-Bis(trifluoromethyl)-2-propenoic acid] (in DMSO)
Procedure: as §1

[8] = compound: O=C(O)C(F)(F)C(F)(F)C(F)(F)C(F)(F)C(F)(F)C(F)(F)C(F)(F)C(F)(F)C(F)(F)C(F)(F)F [Perfluoroundecanoic acid] (in DMSO); details: 6700 nM
Procedure: as §1

Test System | level (log10) ([1]; 1100 nM) | level (log10) ([1]; 3300 nM) | level (log10) ([1]; 10000 nM) | level (log10) [2] | level (log10) ([3]; 1500 nM) | level (log10) ([3]; 4400 nM) | level (log10) ([3]; 13000 nM) | level (log10) ([3]; 40000 nM) | level (log10) ([4]; 6700 nM) | level (log10) ([4]; 20000 nM) | level (log10) ([4]; 60000 nM) | level (log10) ([5]; 6700 nM) | level (log10) ([5]; 20000 nM) | level (log10) ([5]; 60000 nM) | level (log10) ([6]; 6700 nM) | level (log10) ([6]; 20000 nM) | level (log10) ([7]; 6700 nM) | level (log10) ([7]; 20000 nM) | level (log10) ([7]; 60000 nM) | level (log10) [8]
HDF3CGF:MMP-1 | 0.029 ± 0.018 | 0.023 ± 0.0028 | -0.0075 ± 0.0021 | -0.134 ± 0.054 | -0.0695 ± 0.011 | -0.065 ± 0.016 | -0.098 ± 0.018 | -0.081 ± 0.042 | -0.025 ± 0.0057 | -0.0075 ± 0.011 | 0.0035 ± 0.0035 | -0.0195 ± 0.016 | -0.015 ± 0.014 | -0.008 ± 0.045 | -0.0165 ± 0.018 | -0.005 ± 0.042 | -0.015 ± 0.0014 | -0.013 ± 0.017 | -0.001 ± 0.0099 | -0.004 ± 0.0057
HDF3CGF:PAI-I | 0.049 ± 0.078 | 0.056 ± 0.076 | 0.062 ± 0.047 | -0.212 ± 0.0099 | 0.091 ± 0.011 | 0.0875 ± 0.0035 | 0.072 ± 0.0042 | 0.039 ± 0.0099 | -0.057 ± 0.086 | 0.008 ± 0.072 | -0.0255 ± 0.076 | -0.013 ± 0.0042 | 0.0015 ± 0.023 | 0.0385 ± 0.04 | -0.0035 ± 0.0092 | 0.0105 ± 0.015 | -0.0265 ± 0.015 | -0.069 ± 0.0099 | -0.153 ± 0.025 | -0.011 ± 0.0057
HDF3CGF:Proliferation 72hr | -0.0205 ± 0.011 | 0.038 ± 0.0099 | 0.0395 ± 0.028 | -0.827 ± 0.29 | 0.0165 ± 0.011 | -0.0255 ± 0.047 | 0.0645 ± 0.015 | 0.095 ± 0.064 | -0.014 ± 0.045 | -0.022 ± 0.0014 | 0.033 ± 0.027 | 0.0075 ± 0.013 | 0.052 ± 0.042 | 0.0225 ± 0.011 | 0.02 ± 0.011 | 0.007 ± 0.037 | -0.0325 ± 0.021 | -0.086 ± 0.069 | -0.24 ± 0.066 | -0.557 ± 0.11
HDF3CGF:SRB | -0.009 ± 0.023 | 0.0075 ± 0.011 | 0.027 ± 0.0071 | -0.107 ± 0.0021 | 0.0165 ± 0.0064 | 0.0285 ± 0.025 | 0.0515 ± 0.03 | 0.0415 ± 0.07 | -0.0105 ± 0.015 | -0.022 ± 0.0028 | 0.011 ± 0.013 | -0.048 ± 0.0028 | -0.0015 ± 0.056 | 0.0205 ± 0.086 | 0.0315 ± 0.025 | 0.0455 ± 0.036 | -0.014 ± 0.028 | 0.0125 ± 0.021 | -0.022 ± 0.02 | 0.0395 ± 0.011
HDF3CGF:TIMP-1 | -0.0095 ± 0.04 | 0.003 ± 0.03 | 0.0065 ± 0.011 | -0.109 ± 0.088 | -0.0755 ± 0.04 | -0.0735 ± 0.053 | -0.112 ± 0.07 | -0.175 ± 0.081 | -0.045 ± 0.018 | -0.02 ± 0.059 | 0.0035 ± 0.005 | -0.036 ± 0.017 | -0.038 ± 0.018 | -0.031 ± 0.0071 | -0.023 ± 0.027 | -0.0285 ± 0.022 | -0.0935 ± 0.049 | -0.125 ± 0.065 | -0.0675 ± 0.013 | 0.0385 ± 0.043
HDF3CGF:TIMP-2 | 0.011 ± 0.0042 | -0.0035 ± 0.0064 | -0.013 ± 0.047 | -0.291 ± 0.005 | 0.0475 ± 0.028 | 0.062 ± 0.081 | 0.061 ± 0.065 | 0.0585 ± 0.0021 | -0.0305 ± 0.026 | -0.01 ± 0.017 | -0.044 ± 0.027 | -0.0155 ± 0.036 | 0.002 ± 0.017 | -0.0065 ± 0.049 | 0.002 ± 0.027 | -0.03 ± 0.0014 | -0.0175 ± 0.013 | -0.0595 ± 0.028 | -0.082 ± 0.03 | 0.009 ± 0.0042
KF3CT:CCL2/MCP-1 | -0.017 ± 0.0099 | -0.049 ± 0.025 | 0.011 ± 0.0099 | -0.295 ± 0.023 | -0.0015 ± 0.08 | -0.0565 ± 0.049 | -0.0105 ± 0.0035 | -0.033 ± 0.016 | -0.001 ± 0.02 | -0.0675 ± 0.035 | 0.009 ± 0.048 | -0.0175 ± 0.0092 | -0.0305 ± 0.021 | 0.0205 ± 0.056 | -0.0325 ± 0.0092 | 0.008 ± 0.059 | -0.0055 ± 0.036 | -0.015 ± 0.014 | -0.028 ± 0.052 | -0.075 ± 0.011
KF3CT:CD54/ICAM-1 | 0.004 ± 0.0042 | -0.0025 ± 0.0064 | 0.013 ± 0.013 | 0.019 ± 0.0042 | -0.0125 ± 0.0078 | 0.01 ± 0.018 | -0.012 ± 0.011 | -0.003 ± 0.013 | -0.0115 ± 0.0092 | 0.0015 ± 0.019 | -0.009 ± 0.0057 | -0.001 ± 0.0028 | -0.0045 ± 0.0092 | -0.0065 ± 0.013 | -0.0135 ± 0.015 | 0.0145 ± 0.0078 | -0.007 ± 0.0057 | 0.008 ± 0.0071 | 0.022 ± 0.016 | -0.019 ± 0.0028
KF3CT:CXCL8/IL-8 | -0.004 ± 0.0099 | -0.01 ± 0.035 | 0.0175 ± 0.056 | -0.047 ± 0.0042 | -0.044 ± 0.05 | -0.05 ± 0.02 | -0.045 ± 0.021 | -0.045 ± 0.0028 | 0.0025 ± 0.0021 | 0.0185 ± 0.013 | 0.028 ± 0.017 | 0.001 ± 0.013 | -0.0105 ± 0.00071 | 0.0115 ± 0.022 | -0.016 ± 0.0014 | 0.0035 ± 0.019 | -0.004 ± 0.0028 | 0.0025 ± 0.0092 | 0.0245 ± 0.016 | -0.0315 ± 0.037
KF3CT:CXCL9/MIG | 0.0045 ± 0.012 | -0.002 ± 0.0085 | 0.0045 ± 0.0021 | -0.0395 ± 0.042 | -0.008 ± 0.024 | 0.002 ± 0.0014 | -0.0075 ± 0.0021 | -0.01 ± 0.0014 | -0.0055 ± 0.029 | -0.0115 ± 0.021 | -0.0115 ± 0.0035 | -0.0035 ± 0.0092 | -0.0125 ± 0.0092 | 0.003 ± 0.0071 | -0.004 | -0.005 ± 0.0028 | 0.0015 ± 0.005 | -0.003 ± 0.0085 | 0.006 ± 0.011 | 0.0135 ± 0.018
KF3CT:CXCL10/IP-10 | -0.0005 ± 0.0021 | 0.0035 ± 0.0078 | 0.0025 ± 0.011 | -0.282 ± 0.12 | 0.0015 ± 0.0021 | 0.01 ± 0.0071 | 0.005 | 0.0055 ± 0.0064 | 0.009 ± 0.04 | -0.0005 ± 0.00071 | 0.019 ± 0.024 | -0.0095 ± 0.026 | -0.011 ± 0.021 | -0.0085 ± 0.0021 | -0.0155 ± 0.0064 | -0.008 ± 0.0028 | -0.01 ± 0.013 | -0.027 ± 0.0014 | -0.0225 ± 0.019 | -0.054 ± 0.017
KF3CT:IL-1alpha | -0.0015 ± 0.005 | -0.0195 ± 0.012 | 0.006 ± 0.0028 | -0.041 ± 0.03 | -0.036 ± 0.018 | -0.035 ± 0.0057 | -0.0305 ± 0.00071 | -0.051 ± 0.044 | -0.0325 ± 0.018 | -0.056 ± 0.098 | -0.0665 ± 0.067 | -0.0155 ± 0.0021 | -0.017 ± 0.0099 | 0.008 ± 0.034 | -0.032 ± 0.024 | -0.0065 ± 0.032 | -0.001 ± 0.0057 | -0.016 ± 0.016 | -0.0185 ± 0.032 | -0.026 ± 0.011
KF3CT:MMP-9 | -0.0035 ± 0.00071 | -0.022 ± 0.044 | -0.0125 ± 0.016 | -0.278 ± 0.039 | -0.0065 ± 0.00071 | -0.002 | -0.023 ± 0.014 | -0.0175 ± 0.013 | -0.033 ± 0.011 | -0.0435 ± 0.028 | 0.002 ± 0.034 | -0.0235 ± 0.005 | -0.0115 ± 0.033 | 0.0055 ± 0.00071 | -0.008 ± 0.0014 | -0.0065 ± 0.016 | -0.029 ± 0.025 | -0.031 ± 0.041 | -0.078 ± 0.028 | -0.172 ± 0.027
